The target of the assay is T1, IKKβ (Homo sapiens, UniProt O14920).
T1 sequence (O14920 1-756): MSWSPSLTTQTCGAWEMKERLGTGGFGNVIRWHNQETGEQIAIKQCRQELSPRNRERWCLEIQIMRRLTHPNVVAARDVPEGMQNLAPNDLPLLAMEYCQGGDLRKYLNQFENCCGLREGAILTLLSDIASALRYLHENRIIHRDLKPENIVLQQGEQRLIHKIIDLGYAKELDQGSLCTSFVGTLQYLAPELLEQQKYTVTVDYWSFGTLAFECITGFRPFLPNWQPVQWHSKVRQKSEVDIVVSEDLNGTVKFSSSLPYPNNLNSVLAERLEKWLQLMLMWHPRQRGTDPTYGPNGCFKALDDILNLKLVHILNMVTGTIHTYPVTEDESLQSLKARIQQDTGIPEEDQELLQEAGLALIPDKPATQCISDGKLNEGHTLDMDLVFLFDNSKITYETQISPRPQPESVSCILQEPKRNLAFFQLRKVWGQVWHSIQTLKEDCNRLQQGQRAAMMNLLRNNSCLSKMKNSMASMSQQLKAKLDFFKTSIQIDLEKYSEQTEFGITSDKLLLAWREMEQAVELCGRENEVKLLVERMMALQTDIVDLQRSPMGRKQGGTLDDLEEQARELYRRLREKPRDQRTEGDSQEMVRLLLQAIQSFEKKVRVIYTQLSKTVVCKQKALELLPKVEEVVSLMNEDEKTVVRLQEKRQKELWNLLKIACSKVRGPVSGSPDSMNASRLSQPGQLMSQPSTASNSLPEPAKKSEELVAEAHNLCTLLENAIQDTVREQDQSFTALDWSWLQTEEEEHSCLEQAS
The assay is described as follows: SPR. In kind it is binding.

As to `CC(C)C1=CC2=CC[C@@H]3[C@](C)(CCC[C@@]3(C)C(=O)O)[C@H]2CC1` [AA, Abietic acid], the Kd (usually a measure of binding affinity in units of concentration) amounted to 32 µM.

The values above are taken from paper PMC6590626 (OncoTargets and therapy, 2019).
